Results: article PMC3127977, “No relevant cardiac, pharmacokinetic or safety interactions between roflumilast and inhaled formoterol in healthy subjects: an open-label, randomised, actively controlled study” (BMC Clinical Pharmacology, 2011)

Assays:
healthy subjects [1] = tested on: healthy subjects; parameters: method as in earlier work; conditions: cited from earlier work
[2] = Serum glucose concentration on profiling days; conditions: Regimen A, Day 11
Description: (§1) During the main profiling days, blood was sampled at each ZCG time point for the determination of serum glucose and potassium concentrations.

healthy subjects [3] = experiment: Digital 12-lead electrocardiography (HR, QT, QTc); type: in vivo, human
Procedure: Digital 12-lead ECGs were recorded immediately after each ZCG recording. Tracings were analysed off-study by regimen-blinded qualified analysts, using previously reported methodology. For each time point, three cycles were measured with regard to the RR, PQ and QT-intervals [ms]. The means of the three measurements were used for the calculation of HR and HR-corrected QTc intervals, according to Bazett's equation (QTcB = QT/RR^1/2) and Fridericia's equation (QTcF = QT/RR^1/3).

[4] = parameters: method as in PMID 20690782; conditions: cited from earlier work
healthy subjects [5] = experiment: Adverse event monitoring; type: in vivo, human
Description: Blood and urine samples for conventional clinical laboratory safety tests were obtained at the screening visit, in the morning of each main profiling day, and on Day 19. Adverse events (AEs) were monitored throughout the study.

[6] = Serum potassium concentration on profiling days; conditions: Regimen A, Day 11
Description: as §1

[7] = cited from earlier work
[8] = Steady-state plasma pharmacokinetics (HPLC-MS/MS) in healthy men; oral roflumilast 500 μg once daily, inhaled formoterol 24 μg twice daily; conditions: for AUC / Cmax: male, human, plasma, oral; for AUC: AUCτ; for AUC / Cmax / C trough / CL/F: steady state, geometric mean (68% range)
Procedure: For Regimen A, subjects received 500 μg oral roflumilast once daily (daily dose: one tablet of roflumilast 500 μg) from the morning of Day 2 to the morning of Day 18. […] For Regimen B, subjects received 24 μg formoterol for oral inhalation delivered by a DPI device (Foradil® P) twice daily, once in the morning and once in the evening from the morning of Day 2 to the evening of Day 18.
Pre-dose blood samples for determination of trough levels were taken on Days 9 and 10 for Regimen A (morning only), and on Days 6 and 7 (morning and evening) for Regimen B. Blood samples (4.5 mL) were collected in heparinised tubes and plasma was obtained by centrifugation at 1550 g for 15 minutes. Plasma samples were stored at -20°C or below for roflumilast, and at -70°C for formoterol. Plasma concentrations of roflumilast and roflumilast N-oxide were determined using high-performance liquid chromatography coupled with tandem mass spectrometry (HPLC-MS/MS). […] Roflumilast and roflumilast N-oxide standard curves were valid up to 20 ng/mL and 40 ng/mL, respectively. Determination of roflumilast and roflumilast N-oxide was performed at Altana Pharma AG, Konstanz, Germany (Nycomed GmbH). Plasma concentrations of formoterol were determined using HPLC-MS/MS. The LLOQ in plasma was 0.4 pg/mL using a sample volume of 1.0 mL. […] Determination of formoterol was performed at pharm-analyt Labor GmbH, Baden, Austria, under the supervision of Altana Pharma AG(Nycomed GmbH).
For roflumilast, roflumilast N-oxide and formoterol, the maximum plasma concentration (Cmax) was derived directly from the plasma concentrations. The AUC from time zero to the time of the last quantifiable concentration, which corresponded to the dosing interval of each analyte (AUC0-τ), was estimated using the linear trapezoidal method. Apparent clearance at steady state (CL/F; calculated by dose/AUCτ) was reported for roflumilast only. […] The calculation of tPDE4i was based on the equation described in Lahu et al..

[9] = 500 μg, Regimen A Day 11 (roflumilast alone)
[10] = Regimen A Day 18 (roflumilast plus formoterol)
[11] = Regimen B Day 18 (formoterol plus roflumilast)
[12] = Regimen A Day 11 (roflumilast alone)

median pre-dose serum glucose [2]: 4.75 mmol/L | median pre-dose serum potassium level [6]: 4.16 mmol/L | steady-state AUC and Cmax values lower ([8]; Regimen B Day 18 (co-administered with formoterol) compared with Regimen A Day 11 or Day 18): 10-15% | changes in peak concentration and exposure ([8]; concomitant inhaled formoterol compared with roflumilast alone): less than 1% | changes in steady-state pharmacokinetics when the other drug was added ([8]; formoterol added to roflumilast, or roflumilast added to formoterol): no relevant changes | AUC [8, 9]: 35.8 ng·h/mL | Cmax [8, 9]: 6.89 ng/mL | AUC [8, 10]: 36.9 ng·h/mL | AUC [8, 11]: 31.8 ng·h/mL | Cmax [8, 10]: 6.43 ng/mL | Cmax [8, 11]: 5.92 ng/mL | C trough [8, 12]: 0.53 (0.33-0.85) μg/L | CL/F [8, 12]: 13.9 (10.8-17.9) L/h | C trough [8, 10]: 0.50 (0.29-0.86) μg/L | CL/F [8, 10]: 13.5 (10.3-17.7) L/h | C trough [8, 11]: 0.37 (0.18-0.77) μg/L | CL/F [8, 11]: 15.7 (10.4-23.5) L/h
SMILES: O=C(Nc1c(Cl)cncc1Cl)c1ccc(OC(F)F)c(OCC2CC2)c1 [Roflumilast, 3-cyclopropylmethoxy-N-(3,5-dichloropyridin-4-yl)-4-(difluoromethoxy)benzamide]
effect on cardiac repolarisation (QT/QTc interval) (healthy subjects [1]): no significant effect | HR (ECG) (healthy subjects [3]; 12-lead ECG): slight increase | QTc values, uncorrected or corrected using Bazett's or Fridericia's formula (healthy subjects [3]; 12-lead ECG): no clinically relevant changes | duration of the QT interval (healthy subjects [3]; 12-lead ECG): decrease | QT/QTc intervals (healthy subjects [3]; all subjects, all regimens): below 450 ms | increase in tPDE4i expected in patients with COPD compared with healthy individuals [4]: 12.6% | number of AEs (healthy subjects [5]; Regimen A, Day 2 to Day 11): 17 AEs | subjects who experienced AEs (healthy subjects [5]; Regimen A, Day 2 to Day 11, n = 12): 7 subjects | dizziness reports (healthy subjects [5]; Regimen A, roflumilast alone): four | myalgia reports (healthy subjects [5]; Regimen A, roflumilast alone): four | tremor (healthy subjects [5]; administered alone (Regimens A and B respectively)): not observed | median effective plasma half-life ([7]; repeated dose): 17 h | mean bioavailability ([7]; single oral 500 μg dose, healthy individuals): 79% | dose dependence of pharmacokinetics ([7]; within the 250-1000 μg dose range): dose-proportional
